Test results taken from patent US20220243177A1, “METHODS OF CULTURING QUIESCENT HEMATOPOIETIC STEM CELLS AND TREATMENT METHODS” (priority 2019, published 2022).

Legend:
[1] = tested on: MMP-low and MMP-high HSCs (LSKCD150+CD48-); assay: Single cell division assay; format: cell-based, mouse; conditions: for Number of wells with each number of cell division: 0 / Number of wells with each number of cell division: 1 / Number of wells with each number of cell division: Dead / Number of wells with each number of cell division: ≥2: 60 h
Procedure: Single Cell Division Assay: Single cell cultures were carried out as previously described (Bernitz et al., “Hematopoietic Stem Cells Count and Remember Self-Renewal Divisions,” Cell 167(5): 1296-1309 (2016), which is hereby incorporated by reference in its entirety). Single MMP-low and MMP-high HSCs (LSKCD150^+CD48^−) isolated from GFP-transgenic mice were FACS sorted into individual wells of round-bottomed 96-well plates. Single cells were visually confirmed under light microscope and cultured in serum free Stemspan medium. Wells were supplemented with SCF (100 ng/ml) and TPO (20 ng/ml) (both from R&D system), were incubated at 37° C. in a humidified atmosphere with 5% CO2, and the number of cells per well was monitored daily. The final number of cell divisions per well was assessed at the indicated time points in each experiment. Treatments with concanamycin A (“ConA”) (40-100 nM) or DMSO control were added at the start of culture and left in the wells for the duration of the experiment unless otherwise stated. More than 200 cells per condition were analyzed. Cell Cycle Analysis—Pyronin Y staining. Pyronin Y staining was performed as described in Rimmele et al., “Mitochondrial Metabolism in Hematopoietic Stem Cells Requires Functional FOXO3,” EMBO Rep. 16: 1164-1176 (2015) and Yalcin et al., “Foxo3 Is Essential for the Regulation of Ataxia Telangiectasia Mutated and Oxidative Stress-mediated Homeostasis of Hematopoietic Stem Cells,” J. Biol. Chem. 283: 25692-25705 (2008), which are hereby incorporated by reference in their entirety. FACS-purified MMP-low and MMP-high LT-HSCs were stained with Hoechst 33342 ([…]) at 37° C. for 45 minutes, followed by staining with pyronin Y (1 mg/ml) for an additional 15 minutes at 37° C. Cells were then washed in cold PBS, and resuspended in IMDM+2% FBS. Samples were immediately analyzed by flow cytometry.

[2] = tested on: bone marrow lineage-negative cells; assay: Lineage negative bone marrow cell culture, HSC frequency and MMP; format: cell-based, mouse; conditions: ConA 100 nM
Procedure: For measuring MMP and proliferation, lineage negative bone marrow (BM) cells were enriched with the EasySep Mouse hemato- poietic progenitor kit. Lineage negative (1 3 106) cells (isolated separately from four mice) were seeded onto 6 well plates in Stem-Span medium containing SCF (100 ng/ml) and TPO (20 ng/ml). Cells were treated with ConA (100nM) or the DMSO control and analyzed at 0, 6, 12 and 24 hour-time points by flow cytometry for HSC (LSKCD150+CD48−) frequencies or MMP-low and MMP- high HSCs frequencies or MMP (TMRE).

[3] = tested on: MMP-low and MMP-high HSCs; assay: Long term culture-initiating cell (LTC-IC) assay; format: cell-based, mouse
Procedure: Long Term Culture-Initiating Cell (“LTC-IC”) Assay: Long-term cultures were initiated as described in Lemieux et al., “Characterization and Purification of a Primitive Hematopoietic Cell Type in Adult Mouse Marrow Capable of Lymphomyeloid Differentiation in Long-Term Marrow ‘Switch’ Cultures,” Blood 86: 1339-1347 (1995), which is hereby incorporated by reference in its entirety. […] The frequency of long-term culture-initiated cells (“LTC-ICs”) was determined by limiting dilution and applying Poisson distribution statistics as described in Hu & Smyth, “ELDA: Extreme Limiting Dilution Analysis for Comparing Depleted and Enriched Populations in Stem Cell and Other Assays,” J. Immunol. Methods 347: 70-78 (2009), which is hereby incorporated by reference in its entirety.

[4] = tested on: MMP-low and MMP-high LT-HSCs transplanted into lethally irradiated mice; assay: Competitive in vivo long-term reconstitution assay after ex vivo lysosomal inhibition; design: species or system mouse
Procedure: Competitive In Vivo Long-Term Reconstitution Assay: MMP-low and MMP-high HSCs (LSKCD150^+CD48^−, LT-HSC; MMP^low/high) were FACS purified from CD45.1 mice and transplanted at the indicated dose of test cells with 2×10^5 CD45.2 bone marrow cells into lethally irradiated CD45.2 recipients (12 Gy as a split dose, 6.5 and 5.5 Gy, 4 hours apart). Donor (CD45.1) and recipient (CD45.2) mice were 8-12 weeks old. HSC frequency was determined by the limiting dilution assay (Hu & Smith, “ELDA: Extreme Limiting Dilution Analysis for Comparing Depleted and Enriched Populations in Stem Cell and Other Assays,” J. Immunol. Methods 347:7 0-78 (2009), which is hereby incorporated by reference in its entirety) based on the number of mice with […] reconstitution (CD45.1) at 16 weeks.
To assay the effect of HSC lysosomal inhibition in a in vivo competitive long-term reconstitution assay: FACS-sorted MMP-low and -high LT-HSCs (CD45.1) were treated with Concanamycin A (ConA,40 nM) or DMSO control in 96 well plates containing StemSpan with SCF (100 ng/ml) and TPO (20 ng/ml) for 4 days, after which 50 cells from each group were mixed with 2×10^5 CD45.2 total bone marrow cells and injected into lethally irradiated CD45.2 recipients and reconstituted peripheral blood was monitored up to four months.

[5] = tested on: MMP-low and MMP-high HSCs; assay: Lysosome acidity (LysoTracker green, LysoSensor blue); format: cell-based, mouse; conditions: ConA 40 nM, 5 hours
Procedure: To test lysosome acidity in MMP-low and MMP-high HSCs, FACS-sorted MMP-low and MMP-high HSCs were incubated in Stem-Span media with SCF (10 ng/mL) and TPO (20 ng/mL) or amino acid free medium (starvation) containing ConA (40 nM) or DMSO control for 5 hr; and then cells were incubated with […] Lysotracker green (LTR) or 1mM Lysosensor Blue diluted in above medium for 30 min (37° C., 5% CO2). Cells were rapidly washed with warm PBS (37° C.) three times, mounted and images were captured using a Zeiss LSM880 confocal microscope using a 40× objective (N.A. 1.4).

[6] = aging HSCs, ConA 40 nM, 60-hour
[7] = aged HSCs, Con A 40 nM, two days
[8] = ConA 40 nM ex vivo 4 days, 50 cells transplanted

C/C=C/[C@H]1O[C@@](O)([C@@H](C)[C@H](O)[C@H](C)[C@H]2OC(=O)/C(OC)=C/C(C)=C/[C@@H](C)[C@@H](O)[C@@H](CC)[C@@H](O)[C@H](C)C/C(C)=C/C=C/[C@@H]2OC)C[C@@H](O[C@H]2C[C@@H](O)[C@H](OC(N)=O)[C@@H](C)O2)[C@@H]1C [ConA, concanamycin A]
frequency of non-dividing MMP-high GFP+ HSCs ([1]; ConA 40 nM, up to 60 hours): significantly increased | non-dividing MMP-low HSCs in culture ([1]; ConA 40 nM, up to 60 hours): only a slight effect | Number of wells with each number of cell division: 0 ([1]; MMP High + Con A (40 nM)): 23.8 ± 1.33 | Number of wells with each number of cell division: 1 ([1]; MMP High + Con A (40 nM)): 8.8 ± 0.84 | Number of wells with each number of cell division: Dead ([1]; MMP High + Con A (40 nM)): 14.4 ± 0.92 | Number of wells with each number of cell division: ≥2 ([1]; MMP High + Con A (40 nM)): 7.4 ± 2.62 | Number of wells with each number of cell division: 0 ([1]; MMP Low + Con A (40 nM)): 35.8 ± 8.89 | Number of wells with each number of cell division: 1 ([1]; MMP Low + Con A (40 nM)): 7.4 ± 1.24 | Number of wells with each number of cell division: Dead ([1]; MMP Low + Con A (40 nM)): 7 ± 1.51 | Number of wells with each number of cell division: ≥2 ([1]; MMP Low + Con A (40 nM)): 4.6 ± 1.53 | cell death of aging HSC in culture [1, 6]: without any increase in cell death | division of aging HSC in culture [1, 6]: divided less than non-treated HSC | MMP in recovered cells ([2]; 12-24 hours): relative decrease of MMP | frequency of HSCs recovered from 24-hour in vitro culture ([2]; 24 hours): improved frequency | retention of the MMP-low HSC fraction ([2]; twenty-four-hour): greater retention | enhanced frequency of LTC-ICs, MMP-high HSCs ([3]; ConA 40 nM, 48-hour or 4-day): 2.5 fold | enhanced frequency of LTC-ICs, MMP-low HSCs ([3]; ConA 40 nM, 48-hour or 4-day): 1.5 fold | size of LTC-IC-derived colonies ([3]; ConA 40 nM, two days): increased size of colonies | LTC-IC-derived colonies from aged HSCs [3, 7]: increased the LTC-IC-derived colonies | number of LTC-IC recovered from aged HSC cultures [3, 7]: improved the number | blood production in secondary transplants ([4]; 38 weeks post-initial transplantation): increased balanced blood production | production of lineages downstream of MMP-high HSCs ([4]; ConA 40 nM ex vivo 4 days): balanced the production of lineages | increase of in vivo competitive repopulation ability, MMP-high HSCs [4, 8]: over 90 fold | increase of in vivo competitive repopulation ability, MMP-low HSCs [4, 8]: 9 fold | HSC self-renewal in secondary transplantations ([4]; young HSCs, ex vivo ConA): increased HSC self-renewal | lysosomal acidity [5]: reduced
